For 7 compounds, IC50 results are on record in patent publication US20170037028A1 (BAYER PHARMA AKTIENGESELLSCHAFT, priority 2013, published 2017).

Common to all, as to type: cell-based
The target of one assay is T1, GLUT2 (Homo sapiens, UniProt P11168).
T1 construct: host or cells: DLD1 or CHO-K1
T1 sequence (P11168 1-524): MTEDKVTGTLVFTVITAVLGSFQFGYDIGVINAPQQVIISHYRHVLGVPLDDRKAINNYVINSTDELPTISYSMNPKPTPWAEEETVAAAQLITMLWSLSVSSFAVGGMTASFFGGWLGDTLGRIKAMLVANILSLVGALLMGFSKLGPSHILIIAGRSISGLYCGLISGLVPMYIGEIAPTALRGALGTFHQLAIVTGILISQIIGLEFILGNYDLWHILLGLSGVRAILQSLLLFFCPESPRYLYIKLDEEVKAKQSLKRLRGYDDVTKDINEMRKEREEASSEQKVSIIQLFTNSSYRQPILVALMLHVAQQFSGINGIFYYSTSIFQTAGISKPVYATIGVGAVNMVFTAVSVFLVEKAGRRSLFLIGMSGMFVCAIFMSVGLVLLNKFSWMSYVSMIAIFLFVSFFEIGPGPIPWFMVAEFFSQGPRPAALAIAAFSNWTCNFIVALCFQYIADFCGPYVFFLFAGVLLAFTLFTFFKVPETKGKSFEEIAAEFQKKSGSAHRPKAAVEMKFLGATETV
Briefly: Indirect measurement of GLUT2 activity by quantification of intracellular ATP levels (fructose induced ATP increase). The settings on record: 10 mM fructose, 1 μM Rotenone, 15 min; CellTiter-Glo ATP readout; read-out: IC50 regarding fructose induced ATP increase (GLUT2 inhibition). The source says:
Indirect Measurement of GLUT1 and GLUT2 Activity by Quantification of Intracellular ATP Levels
It is well known that a combination of small-molecule inhibitors of mitochondrial electron transport chain and glucose catabolism synergistically suppress ATP production and impair cellular viability (Ulanovskaya et al., 2008, 2011; Liu, et al. 2001). We therefore used DLD1 or CHO-K1 cells in combination with an oxidative phosphorylation inhibitor to identify GLUT1 and GLUT2 inhibitors. Cell lines were maintained in DMEM medium supplemented with 10% FCS and 1% Penicillin-Streptomycin solution and 2% Glutamax. The cells were treated with trypsin and seeded into 384 plates at a density of 4000 cells/well. The cells were then cultured overnight in glucose free media containing 1% FCS to reduce intracellular ATP levels. […] The CellTiter-Glo® Luminescent Cell Viability Assay from Promega was then used to measure ATP Levels.

Assay [1] has as its target T2, GLUT1 (Homo sapiens, UniProt P11166).
T2 sequence (P11166 1-492): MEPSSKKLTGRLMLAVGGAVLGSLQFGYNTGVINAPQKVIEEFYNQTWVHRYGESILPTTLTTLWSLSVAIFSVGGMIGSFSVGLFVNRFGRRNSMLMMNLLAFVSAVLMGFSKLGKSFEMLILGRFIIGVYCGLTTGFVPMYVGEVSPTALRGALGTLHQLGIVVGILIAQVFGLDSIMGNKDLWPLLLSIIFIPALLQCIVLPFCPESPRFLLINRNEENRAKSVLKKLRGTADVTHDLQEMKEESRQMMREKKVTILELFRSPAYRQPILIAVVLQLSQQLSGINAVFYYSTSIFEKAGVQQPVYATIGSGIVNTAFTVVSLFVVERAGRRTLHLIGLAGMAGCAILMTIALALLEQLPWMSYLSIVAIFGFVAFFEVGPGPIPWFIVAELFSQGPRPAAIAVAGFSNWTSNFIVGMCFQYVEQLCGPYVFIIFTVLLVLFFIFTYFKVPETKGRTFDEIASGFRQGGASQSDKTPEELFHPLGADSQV
Briefly: Indirect measurement of GLUT1 activity by quantification of intracellular ATP levels (glucose induced ATP increase). Also on record: endogenous in cells; host or cells: DLD1 or CHO-K1. Particulars: read-out: IC50 regarding glucose induced ATP increase (GLUT1 inhibition). In short, it runs like this:
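Intracellular ATP was measured by CellTiter-Glo luminescence as an indirect readout of transport: glucose-driven for GLUT1, fructose-driven for GLUT2. DLD1 or CHO-K1 cells were used alongside an oxidative phosphorylation inhibitor. Beforehand, cells were held overnight in glucose-free 1% FCS medium to deplete ATP.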

In assay [2] the target is T2, GLUT1. Briefly: 2-deoxy-D-glucose (3H) uptake assay, GLUT1 inhibition in cell lines. Particulars: H460 cell line; 3H-2-deoxy-D-glucose uptake; read-out: IC50 regarding GLUT1 inhibition. On the procedure: Cells (e.g. H460 or CHO-K1) were cultured under standard conditions. 10000 cells per well were seeded in clear 96 well tissue culture isoplate plates and cultured overnight (PerkinElmer, 1450-516) under standard conditions. Culture medium was removed and cells were washed two times with 100 μL KRP buffer and then incubated for 45 minutes at 37° C. (KRP buffer: 10 mM sodium hydrogen phosphate, 130 mM sodium chloride, 5 mM potassium chloride, 1.3 mM magnesium sulfate, 1.3 mM calcium chloride (pH 7.5), 50 mM HEPES (pH 7.5), 4.7 mM potassium chloride, 1.25 mM magnesium sulfate, 1.25 mM calcium chloride) each. KRP wash buffer was removed and compound 126 (diluted in KRP buffer) was added and incubated for 30 minutes at 37° C. 200 nM radioligand (radioligand 2[1,2] 3H-Deoxy D-Glucose in KRP buffer) were added and incubated for 5 minutes at room temperature. The supernatant was removed and cells were washed with 100 μL ice-cold KRP for two times each. 25 μL of Lysis buffer (1% Triton-X, 0.5N sodium hydroxide) were added and incubated at room temperature for 5 minutes. 75 μL scintillation solution (Microscint-20, PerkinElmer) were added and the plates were shaken for 1 minute. The plates were incubated for 3 h at room temperature and the counts were determined by using a Wallace MicroBeta counter (60 seconds per well).

For the compound `COc1cc(C(=O)Nc2c(C)nn(Cc3ccc(C#N)cc3)c2C)c2ccccc2n1` [Example 15, N-[1-(4-cyanobenzyl)-3,5-dimethyl-1H-pyrazol-4-yl]-2-methoxyquinoline-4-carboxamide], the IC50 is 85.4 µM on GLUT2 and 0.0116 µM on GLUT1 [1].
With `Cc1c(NC(=O)c2cc(C(N)=O)nc3ccccc23)c(C(F)(F)F)nn1Cc1ccc(C#N)cc1` [Example 126, N^4-[1-(4-cyanobenzyl)-5-methyl-3-(trifluoromethyl)-1H-pyrazol-4-yl]quinoline-2,4-dicarboxamide], the results for the IC50 at GLUT2, on GLUT1 [1] and on GLUT1 [2] were 85.4 µM, 0.0047 µM and 0.0154 µM, respectively.
On to `Cc1nn(Cc2ccc(C#N)cn2)c(C)c1NC(=O)c1cc(C(N)=O)nc2cccc(F)c12` [Example 352, N^4-{1-[(5-cyanopyridin-2-yl)methyl]-3,5-dimethyl-1H-pyrazol-4-yl}-5-fluoroquinoline-2,4-dicarboxamide], for which the results for the IC50 at GLUT2 and at GLUT1 [1] were 45.1 µM and 0.0025 µM, respectively.
Consider `Cc1nn(Cc2ccc(CN(C)C)cc2)c(C)c1NC(=O)c1cc(C(N)=O)nc2cc(F)ccc12` [Example 388, N^4-(1-{4-[(dimethylamino)methyl]benzyl}-3,5-dimethyl-1H-pyrazol-4-yl)-7-fluoroquinoline-2,4-dicarboxamide], for which the results for the IC50 on GLUT2 and at GLUT1 [1] were 51.2 µM and 0.108 µM, respectively.
As to `CCS(=O)(=O)N1CCC(Cn2nc(C)c(NC(=O)c3cc(C(N)=O)nc4cc(F)c(Cl)cc34)c2C)CC1` [Example 415, 6-chloro-N^4-(1-{[1-(ethylsulfonyl)piperidin-4-yl]methyl}-3,5-dimethyl-1H-pyrazol-4-yl)-7-fluoroquinoline-2,4-dicarboxamide], the IC50 came to 18.4 µM at GLUT2 and 0.01 µM on GLUT1 [1].
Take `CNC(=O)c1nc(Cn2nc(C(F)(F)F)c(NC(=O)c3cc(C(N)=O)nc4cc(F)c(Cl)cc34)c2C)no1` [Example 1558]: the IC50 at GLUT2 was found to be 51.2 µM; on GLUT1 [1], 0.0119 µM.
Take `CCc1noc(Cn2nc(C)c(NC(=O)c3cc(C(N)=O)nc4ccccc34)c2C)n1` [Example 1571]: the IC50 came out at 36.1 µM at GLUT2 and 0.0641 µM on GLUT1 [1].

In general, IC50 refers to the concentration that gives 50% inhibition.
